From patent US12193994B2, “Combination of a cell therapy and a gamma secretase inhibitor” (Juno Therapeutics, Inc., priority 2017, dated 2025)

Columns and labels:
OPM2 target cells [1] = test: Similar study: concentration dependence of anti-BCMA CAR-T cytolytic function; assay type: cell-based; details: Homo sapiens, OPM-2; OPM2, one exemplary donor; read-out: increasing anti-BCMA CAR-T killing of BCMA-expressing target cells, IC50
Protocol: (§1) Anti-BCMA CAR-T cells generated as described in this Example above were cultured at 37° C. with either OPM2 or RPMI-8226 target cells at an effector to target (E:T) ratio of 0.3:1. The target cells were labeled with NucLight Red (NLR), to permit tracking of target cells by microscopy. Cultures were incubated in the absence of LY3039478 or in the presence of LY3039478 at concentrations of 0.1 nM, 1 nM, 10 nM, 100 nM, 1000 nM, 10000 nM or 100000 nM (the range covering the estimated human pharmacokinetic range is shown by the boxes in FIGS. 3A-3D). As a control, target cells were incubated with LY3039478 but without culture with CAR-T cells. Cytolytic activity was assessed by measuring the loss of viable target cells after about 150 hours, as determined by red fluorescent signal (using the IncuCyte® Live Cell Analysis System, Essen Bioscience). The area under the curve for killing observed during the culture period (˜150 hours) was determined. Percent lysis (% killing) was determined by normalizing the AUC for killing to cultures incubated without the inhibitor.
(§2) A similar study was carried out to further assess the effects of different concentrations of LY3039478, including concentrations within the estimated Cmax/Cmin for the inhibitor, on the cytolytic function of anti-BCMA CAR-T cells against OPM2 target cells.

[2] = tested on: BCMA on the surface of multiple myeloma cells; test: BCMA surface expression on multiple myeloma cells in patients given oral LY3039478; assay type: in vivo, human; details: mean, three 25 mg oral doses
Protocol: Three human subjects having multiple myeloma were administered three 25 mg doses of the gamma secretase inhibitor (GSI) LY3039478 by mouth. The absolute B cell maturation antigen (BCMA) antibody binding capacity (ABC) on the surface of multiple myeloma cells was quantitated by flow cytometry performed on bone marrow aspirate specimens obtained from each of the patients prior to administration of the GSI, and immediately after the third oral GSI dose. A mean 66-fold increase in BCMA ABC was observed following GSI administration (FIG. 15A).

OPM2 target cells [3] = test: Similar study: concentration dependence of cytokine production by anti-BCMA CAR-T cells; assay type: cell-based; details: Homo sapiens, OPM-2; OPM2, one exemplary donor, IFN-gamma (FIG. 3E); read-out: increasing cytokine production by anti-BCMA CAR-T cells, IC50
Protocol: The production of cytokines by anti-BCMA CAR-T cells in the presence or absence of LY3039478 was assessed by monitoring cytokine levels in the supernatants of co-cultures of CAR-T cells with BCMA-expressing target cells. CAR-T cells generated as described in this Example above were cultured with either OPM2 or RPMI-8226 target cells in the absence of LY3039478 or in the presence of LY3039478 at concentrations of 0.1 nM, 1 nM, 10 nM, 100 nM, 1000 nM, 10000 nM or 100000 nM (the range covering the estimated human pharmacokinetic range is shown by the boxes in FIGS. 3A-3D). Culture supernatants were harvested after 24 hours, and IFNγ and IL-2 were measured from the culture supernatants.
as §2, with “ability” for “cytolytic function”, “generated as described in this Example 2 above to produce cytokines following co-culture with” for “against”

[4] = tested on: OPM2 or RPMI-8226 target cells; test: Cytolytic activity of anti-BCMA CAR-T cells co-cultured with target cells +/- LY3039478 (IncuCyte); assay type: cell-based, human
Source text: In this study, to generate anti-BCMA CAR-expressing T cells, CD4+ and CD8+ T cells were isolated by immunoaffinity-based enrichment from leukapheresis samples from two healthy donor subjects and one myeloma patient. Isolated T cells were activated and transduced with a viral vector encoding an anti-BCMA CAR. The CAR contained an scFv antigen-binding domain specific for BCMA having a VH domain and a VL domain with amino acid sequences set forth in SEQ ID NOS: 24 and 25, respectively, a spacer, a spacer having an amino acid sequence set forth in SEQ ID NO:31, a CD28 transmembrane region, a 4-1BB costimulatory signaling region and a CD3-zeta derived intracellular signaling domain. The nucleic acid construct encoding the CAR also included a truncated receptor sequence for use as a transduction marker, separated from the CAR sequence by a self-cleaving T2A sequence.
as §1

## C[C@H](NC(=O)CCC(F)(F)F)C(=O)N[C@@H]1C(=O)N(CCO)c2ncccc2-c2ccccc21 [LY3039478, 4,4,4-trifluoro-N-[(1S)-2-[[(7S)-5-(2-hydroxyethyl)-6-oxo-7H-pyrido[2,3-d][3]benzazepin-7-yl]amino]-1-methyl-2-oxo-ethyl]butanamide]
OPM2 target cells [1]
  IC50: 0.1 to 0.25 nM
[2]; three subjects, bone marrow aspirate
  increase in BCMA antibody binding capacity (ABC) following GSI administration: 66 fold
[2]; 35% (mean) before GSI
  percentage of plasma cells with measurable surface BCMA expression following the three oral doses: 98.4%
OPM2 target cells [3]
  IC50: 0.1 to 0.25 nM
[4]; 0.1 nM to 100000 nM, E:T 0.3:1, about 150 hours, myeloma patient-derived CAR-T, OPM2 and RPMI-8226
  cytolytic activity of anti-BCMA CAR T cells (% killing): increased the cytolytic activity
[4]; 100 μM LY3039478
  detrimental effects on CAR T cell function: No detrimental effects
[4]; CAR-T cells derived from the other donors
  CAR-T function: increase in CAR-T function
[4]; LY3039478 alone without CAR-T cells
  target survival: No differences
